Laboratory results as given in the supplement of paper PMC10307832.

Experiments:
Experiment in all cases: relative viability (nuclei count vs DMSO), 5 days (fraction); higher = more cells survive
NCI-H2342 = tested on: NCI-H2342
Procedure, shortened: (§1)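 Lung cancer cell lines in 1536-well plates got either a single drug or a fixed anchor-drug dose together with five library-drug doses (not always all listed) in √10 steps, by pin tool, on the day after seeding. Nuclei were counted after 5 days, and relative viability is the treated-to-vehicle ratio of nuclei counts. Values are medians of duplicate plates.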

NCI-H522 = tested on: NCI-H522
Procedure, shortened: as §1

SW 900 = tested on: SW 900
Procedure, shortened: as §1

NCI-H1648 = tested on: NCI-H1648
Procedure, shortened: as §1

NCI-H1563 = tested on: NCI-H1563
Procedure, shortened: as §1

NCI-H1299 = tested on: NCI-H1299
Procedure, shortened: as §1

IA-LM = tested on: IA-LM
Procedure, shortened: as §1

EBC-1 = tested on: EBC-1
Procedure, shortened: as §1

NCI-H1703 = tested on: NCI-H1703
Procedure, shortened: as §1

A549 = tested on: A549
Procedure, shortened: as §1

Calu-6 = tested on: Calu-6
Procedure, shortened: as §1

O=c1[nH]c2ccccc2n1C1CCN(CCCC(c2ccc(F)cc2)c2ccc(F)cc2)CC1 [Pimozide] + CC(=O)c1c(C)c2cnc(Nc3ccc(N4CCNCC4)cn3)nc2n(C2CCCC2)c1=O [Palbociclib] (partner 0.5 µM)
relative viability (NCI-H2342; first compound 0.08 µM): 0.573
relative viability (NCI-H2342; first compound 0.253 µM): 0.526
relative viability (NCI-H2342; first compound 0.8 µM): 0.436
relative viability (NCI-H2342; first compound 2.53 µM): 0.484
relative viability (NCI-H2342; first compound 8 µM): 0.507
relative viability (NCI-H522; first compound 0.08 µM): 0.766
relative viability (NCI-H522; first compound 0.253 µM): 0.785
relative viability (NCI-H522; first compound 0.8 µM): 0.94
relative viability (NCI-H522; first compound 2.53 µM): 0.891
relative viability (NCI-H522; first compound 8 µM): 0.901
relative viability (SW 900; first compound 0.08 µM): 0.526
relative viability (SW 900; first compound 0.253 µM): 0.572
relative viability (SW 900; first compound 2.53 µM): 0.511
relative viability (SW 900; first compound 8 µM): 0.443
relative viability (NCI-H1648; first compound 0.08 µM): 0.301
relative viability (NCI-H1648; first compound 0.8 µM): 0.233
relative viability (NCI-H1648; first compound 2.53 µM): 0.282
relative viability (NCI-H1648; first compound 8 µM): 0.31

Cc1cnc(-c2cnc(NCCNc3ccc(C#N)cn3)nc2-c2ccc(Cl)cc2Cl)[nH]1 + Nc1nc2[nH]cc(CCc3ccc(C(=O)N[C@@H](CCC(=O)O)C(=O)O)cc3)c2c(=O)[nH]1 [Pemetrexed] (partner 0.2 µM)
relative viability (NCI-H2342; first compound 0.08 µM): 0.823
relative viability (NCI-H2342; first compound 0.253 µM): 0.633
relative viability (NCI-H2342; first compound 0.8 µM): 0.721
relative viability (NCI-H2342; first compound 2.53 µM): 0.736
relative viability (NCI-H522; first compound 0.08 µM): 1.08
relative viability (NCI-H522; first compound 0.253 µM): 1.03
relative viability (NCI-H522; first compound 0.8 µM): 0.97
relative viability (NCI-H522; first compound 2.53 µM): 1.07
relative viability (SW 900; first compound 0.08 µM): 0.501
relative viability (SW 900; first compound 0.253 µM): 0.487
relative viability (SW 900; first compound 0.8 µM): 0.478
relative viability (SW 900; first compound 2.53 µM): 0.438
relative viability (NCI-H1648; first compound 0.08 µM): 0.545
relative viability (NCI-H1648; first compound 0.253 µM): 0.723
relative viability (NCI-H1648; first compound 0.8 µM): 0.703
relative viability (NCI-H1648; first compound 2.53 µM): 0.653
relative viability (NCI-H1563; first compound 0.08 µM): 0.746
relative viability (NCI-H1563; first compound 0.253 µM): 0.805
relative viability (NCI-H1563; first compound 0.8 µM): 0.768
relative viability (NCI-H1563; first compound 2.53 µM): 0.722

O=C(O)CCCCC(CCSCc1ccccc1)SCc1ccccc1 (stereo unspecified) [CPI-613] + C[C@]1(O)C[C@@H](c2nc(-c3ccc4ccc(-c5ccccc5)nc4c3)c3c(N)nccn32)C1 [Linsitinib] (partner 1 µM)
relative viability (NCI-H1299; first compound 5 µM): 0.933
relative viability (NCI-H1299; first compound 15.81 µM): 0.894
relative viability (NCI-H1299; first compound 50 µM): 0.869
relative viability (NCI-H1299; first compound 158.11 µM): 1
relative viability (NCI-H1299; first compound 500 µM): 0.957
relative viability (IA-LM; first compound 5 µM): 0.703
relative viability (IA-LM; first compound 15.81 µM): 0.364
relative viability (IA-LM; first compound 50 µM): 0.432
relative viability (IA-LM; first compound 158.11 µM): 0.527
relative viability (IA-LM; first compound 500 µM): 0.358
relative viability (NCI-H1563; first compound 5 µM): 1.26
relative viability (NCI-H1563; first compound 15.81 µM): 1.21
relative viability (NCI-H1563; first compound 50 µM): 1.23
relative viability (NCI-H1563; first compound 158.11 µM): 0.454
relative viability (NCI-H1563; first compound 500 µM): 0.208
relative viability (EBC-1; first compound 5 µM): 0.874
relative viability (EBC-1; first compound 15.81 µM): 0.695
relative viability (EBC-1; first compound 50 µM): 0.593
relative viability (EBC-1; first compound 158.11 µM): 0.786
relative viability (EBC-1; first compound 500 µM): 0.608
relative viability (NCI-H1703; first compound 5 µM): 1.21
relative viability (NCI-H1703; first compound 15.81 µM): 0.809
relative viability (NCI-H1703; first compound 50 µM): 0.568
relative viability (NCI-H1703; first compound 158.11 µM): 0.17
relative viability (NCI-H1703; first compound 500 µM): 0.439
relative viability (A549; first compound 5 µM): 0.529
relative viability (A549; first compound 15.81 µM): 0.521
relative viability (A549; first compound 50 µM): 0.588
relative viability (A549; first compound 158.11 µM): 0.722
relative viability (A549; first compound 500 µM): 0.597
relative viability (Calu-6; first compound 5 µM): 1.02
relative viability (Calu-6; first compound 50 µM): 0.726
relative viability (Calu-6; first compound 158.11 µM): 0.905
relative viability (Calu-6; first compound 500 µM): 0.658

O=c1[nH]c2ccccc2n1C1CCN(CCCC(c2ccc(F)cc2)c2ccc(F)cc2)CC1 [Pimozide] + CS(=O)(=O)N1CCN(Cc2cc3nc(-c4cccc5[nH]ncc45)nc(N4CCOCC4)c3s2)CC1 [Pictilisib] (partner 1 µM)
relative viability (NCI-H1299; first compound 0.08 µM): 0.788
relative viability (NCI-H1299; first compound 0.253 µM): 0.729
relative viability (NCI-H1299; first compound 0.8 µM): 0.666
relative viability (NCI-H1299; first compound 2.53 µM): 0.745
relative viability (NCI-H1299; first compound 8 µM): 0.703
relative viability (IA-LM; first compound 0.253 µM): 0.28
relative viability (IA-LM; first compound 0.8 µM): 0.288
relative viability (IA-LM; first compound 2.53 µM): 0.404
relative viability (IA-LM; first compound 8 µM): 0.438
relative viability (NCI-H1563; first compound 0.08 µM): 0.654
relative viability (NCI-H1563; first compound 0.253 µM): 0.646
relative viability (NCI-H1563; first compound 0.8 µM): 0.667
relative viability (NCI-H1563; first compound 2.53 µM): 0.642
relative viability (NCI-H1563; first compound 8 µM): 0.637
relative viability (EBC-1; first compound 0.08 µM): 0.393
relative viability (EBC-1; first compound 0.253 µM): 0.37
relative viability (EBC-1; first compound 0.8 µM): 0.364
relative viability (EBC-1; first compound 2.53 µM): 0.269
relative viability (EBC-1; first compound 8 µM): 0.27
relative viability (NCI-H1703; first compound 0.08 µM): 0.24
relative viability (NCI-H1703; first compound 0.253 µM): 0.273
relative viability (NCI-H1703; first compound 0.8 µM): 0.296
relative viability (NCI-H1703; first compound 2.53 µM): 0.264
relative viability (NCI-H1703; first compound 8 µM): 0.246
relative viability (A549; first compound 0.08 µM): 0.524
relative viability (A549; first compound 0.253 µM): 0.472
relative viability (A549; first compound 0.8 µM): 0.494
relative viability (A549; first compound 2.53 µM): 0.385
relative viability (A549; first compound 8 µM): 0.448
relative viability (Calu-6; first compound 0.08 µM): 0.952
relative viability (Calu-6; first compound 0.253 µM): 0.984
relative viability (Calu-6; first compound 0.8 µM): 0.808
relative viability (Calu-6; first compound 2.53 µM): 0.84
relative viability (Calu-6; first compound 8 µM): 0.872
